Reference: patent publication US20160257697A1, “THIOPHENE-SUBSTITUTED TETRACYCLIC COMPOUNDS AND METHODS OFUSE THEREOF FOR THE TREATMENT OF VIRAL DISEASES” (priority 2013, published 2016)
Like-named read-outs stand apart in the source and are kept apart here.

Tests used:
Experiment in all cases: microbe, parasite or virus in culture
Assay type in all cases: cell-based, Hepatitis C virus (HCV)
HCV replicon 1B = settings: Replicon Assay B
Description: In an alternate assay (“Replicon Assay B”), 1000 cells were seeded per well in a 384-well collagen coated black plate from Greiner bio-one (Cat #781946) in 5% FBS. Inhibitors of this invention were added at 24 h post-seeding, and the plates were incubated for 3 days. Cells were subsequently lysed with Qiagen lysis buffer (Cat #1062731) to extract the RNA. HCV replicon RNA level was measured by real-time PCR using the RNA-to-CT kit from Applied Biosystem (Cat #4392656) and genotype-specific primers and probes. The amplicon was located within NS5B. […] (SEQ. ID NO. 2); the probe sequence was FAM-labeled […] (SEQ. ID NO. 3).
The real-time RT-PCR reactions were run on ABI PRISM 7900HT or Viia7 Sequence Detection System using the following program: 48° C. for 30 minutes, 95° C. for 10 minutes, 40 cycles of 95° C. for 15 sec, 60° C. for 1 minutes.
Data for replicons 1A, 1AY93H and 2B were obtained using Replicon Assay A and data for replicons 1AQ30D and 1B were obtained using Replicon Assay B.

HCV replicon 2B = settings: Replicon Assay A
Procedure, shortened: (§1)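 Three-day treatment of replicon cells (2000/well, 5% FBS, 0.5% DMSO), followed by TaqMan RT-PCR of replicon RNA with cyclophilin as internal control.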

HCV replicon 1A = settings: Replicon Assay A
Procedure, shortened: as §1

HCV replicon 1AY93H = settings: Replicon Assay A
Procedure, shortened: as §1

[1] = read-out: 1A Y93H IC50, replicon 1AY93H
[2] = read-out: 2B IC50, HCV replicon 2B
[3] = read-out: 1A Y93H IC50, HCV replicon 1A Y93H
[4] = Hepatitis C virus, HCV replicon 1B
[5] = Hepatitis C virus, read-out: 2B IC50, HCV replicon 2B
[6] = HCV replicon 2B, read-out: 2B IC50
[7] = HCV replicon 1A Y93H, read-out: 1A Y93H IC50
[8] = Hepatitis C virus, HCV replicon 1A

| Structure (SMILES) | IC50 (HCV replicon 2B; read-out: 2B IC50, replicon 2B) [nM] | IC50 (HCV replicon 1A; replicon 1A) [nM] | IC50 (HCV replicon 1AY93H; [1]) [nM] | IC50 (HCV replicon 1B; Hepatitis C virus, replicon 1B) [nM] | IC50 (HCV replicon 1A; HCV replicon 1A) [nM] | further results |
| --- | --- | --- | --- | --- | --- | --- |
| COC(=O)NC(C(=O)N1CCC[C@H]1c1ncc(-c2ccc3c(c2)cc2n3C(c3ccc(C4CC4)s3)Oc3cc(-c4cnc([C@@H]5CCCN5C(=O)[C@@H](NC(=O)OC)C(C)C)[nH]4)cc(F)c3-2)[nH]1)C1CN(C(=O)OC)C1 (single isomer, unassigned) [Compound 228] | 0.47 | 0.002 | 0.5 | – | – | IC50 (HCV replicon 1B; replicon 1B): 0.0038 nM |
| COC(=O)NC(C(=O)N1CCC[C@H]1c1ncc(-c2ccc3c(c2)cc2n3C(c3ccc(C4CC4)s3)Oc3cc(-c4cnc([C@@H]5CCCN5C(=O)[C@@H](NC(=O)OC)C(C)C)[nH]4)cc(F)c3-2)[nH]1)C(C)(C)F (single isomer, unassigned) [Compound 77] | 0.41 | 0.0018 | 0.24 | – | – | IC50 (HCV replicon 1B; replicon 1B): 0.0029 nM |
| CC[C@@H]1CC(C(NC(=O)OC)C(=O)N2CCC[C@H]2c2ncc(-c3ccc4c(c3)cc3n4C(c4ccc(C5CC5)s4)Oc4cc(-c5cnc([C@@H]6CCCN6C(=O)[C@@H](NC(=O)OC)C(C)C)[nH]5)cc(F)c4-3)[nH]2)C[C@H](CC)O1 (single isomer, unassigned) [Compound 289] | 5.64 | 0.0031 | 1.24 | 0.0042 | – | – |
| COC(=O)N[C@H](C(=O)N1CCC[C@H]1c1ncc(-c2cc(F)c3c(c2)OC(c2cc4c(s2)CCC4)n2c-3cc3cc(-c4cnc([C@@H]5CCCN5C(=O)[C@@H](NC(=O)OC)C(C)C)[nH]4)ccc32)[nH]1)C(C)C (single isomer, unassigned) [Compound 27] | – | – | – | 0.0014 | – | IC50 (HCV replicon 2B; Hepatitis C virus, read-out: 2B IC50 (nM), replicon 2B): 1.49 nM; IC50 (HCV replicon 1A; Hepatitis C virus, replicon 1A): 0.0016 nM; IC50 (HCV replicon 1AY93H; Hepatitis C virus, read-out: 1A Y93H IC50 (nM), replicon 1AY93H): 0.65 nM |
| COC(=O)N[C@H](C(=O)N1CCC[C@H]1c1ncc(-c2cc(F)c3c(c2)OC(c2ccc(C(C)(C)O)s2)n2c-3cc3cc(-c4cnc([C@@H]5CCCN5C(=O)[C@@H](NC(=O)OC)C(C)C)[nH]4)ccc32)[nH]1)C(C)C (single isomer, unassigned) [Compound 83] | 0.8 | – | 0.42 | 0.0031 | – | IC50 (HCV replicon 1A; Hepatitis C virus, replicon 1A): 0.0032 nM |
| COC(=O)N[C@H](C(=O)N1CCC[C@H]1c1ncc(-c2ccc3c(c2)OC(c2ccc(C4CC4)s2)n2c-3c(F)c3cc(-c4cnc([C@@H]5CCCN5C(=O)[C@@H](NC(=O)OC)C(C)C)[nH]4)ccc32)[nH]1)C(C)C (single isomer, unassigned) [Compound 606] | – | – | – | – | 0.0026 | IC50 (HCV replicon 1B; HCV replicon 1B): 0.0032 nM; IC50 (HCV replicon 2B; [2]): 0.286 nM; IC50 (HCV replicon 1AY93H; [3]): 0.161 nM |
| COC(=O)N[C@H](C(=O)N1CCC[C@H]1c1ncc(-c2cc(F)c3c(c2)OC(c2ccc(F)s2)n2c-3cc3cc(-c4cnc([C@@H]5CCCN5C(=O)[C@@H](NC(=O)OC)C(C)C)[nH]4)ccc32)[nH]1)C(C)C (single isomer, unassigned) [Compound 13] | 3.79 | – | 2.1 | 0.0023 | – | IC50 (HCV replicon 1A; Hepatitis C virus, replicon 1A): 0.0019 nM |
| COC(=O)N[C@H](C(=O)N1C2CC2C[C@H]1c1ncc(-c2cc(F)c3c(c2)OC(c2ccc(C4CC4)s2)n2c-3cc3cc(-c4cnc([C@@H]5CCCN5C(=O)[C@@H](NC(=O)OC)C5C[C@@H](C)O[C@@H](C)C5)[nH]4)ccc32)[nH]1)C(C)C (single isomer, unassigned) [Compound 558] | – | – | – | – | 0.0535 | IC50 (HCV replicon 1B; HCV replicon 1B): 0.0358 nM; IC50 (HCV replicon 2B; [2]): 1.22 nM; IC50 (HCV replicon 1AY93H; [3]): 0.362 nM |
| COC(=O)N[C@H](C(=O)N1CCC[C@H]1c1ncc(-c2ccc3c(c2)OC(c2ccc(C4CC4)s2)n2c-3cc3cc(-c4cnc([C@@H]5CCCN5C(=O)[C@@H](NC(=O)OC)C(C)C)[nH]4)ccc32)[nH]1)C(C)C (single isomer, unassigned) [Compound 704] | – | – | – | – | 0.0029 | IC50 (HCV replicon 1B; [4]): 0.0029 nM; IC50 (HCV replicon 2B; [2]): 1.07 nM; IC50 (HCV replicon 1AY93H; [3]): 0.45 nM |
| COC(=O)NC(C(=O)N1CCC[C@H]1c1ncc(-c2ccc3c(c2)cc2n3C(c3cc(C)c(C)s3)Oc3cc(-c4cnc([C@@H]5CCCN5C(=O)[C@@H](NC(=O)OC)C5CCOCC5)[nH]4)cc(F)c3-2)[nH]1)C(C)(C)F (single isomer, unassigned) [Compound 130] | 0.24 | 0.0017 | 0.24 | 0.0036 | – | – |
| COC(=O)N[C@H](C(=O)N1C[C@H](F)C[C@H]1c1cnc(-c2ccc3c(c2)cc2n3C(c3cc4ccccc4s3)Oc3cc(-c4cnc([C@@H]5C[C@@H](F)CN5C(=O)[C@@H](NC(=O)OC)C(C)C)[nH]4)ccc3-2)[nH]1)C(C)C (single isomer, unassigned) [Compound 805] | – | – | – | – | 0.01 | IC50 (HCV replicon 1B; [4]): 0.005 nM; IC50 (HCV replicon 2B; [5]): 21.5 nM; IC50 (HCV replicon 1AY93H; [3]): 0.01 nM |
| COC(=O)NC(C(=O)N1CCC[C@H]1c1ncc(-c2cc(F)c3c(c2)OC(c2ccc(C4CC4)s2)n2c-3cc3cc(-c4cnc([C@@H]5CCCN5C(=O)[C@@H](NC(=O)OC)C5CCOCC5)[nH]4)ccc32)[nH]1)C(C)(C)F (stereo partly drawn) [Compound 170] | 0.05 | 0.001 | 0.056 | – | – | IC50 (HCV replicon 1B; replicon 1B): 0.0033 nM |
| CCc1c2n(c3ccc(-c4cnc(C5CCCN5C(=O)C(NC(=O)OC)C(C)C)[nH]4)cc13)C(c1ccc(C3CC3)s1)Oc1cc(-c3cnc(C4CCCN4C(=O)C(NC(=O)OC)C(C)C)[nH]3)cc(F)c1-2 (single isomer, unassigned) [Compound 838] | – | – | – | – | 0.0055 | IC50 (HCV replicon 1B; HCV replicon 1B): 0.0013 nM |
| COC(=O)N[C@H](C(=O)N1CCC[C@H]1c1ncc(-c2cc(F)c3c(c2)OC(c2ccc(F)s2)n2c-3cc3cc(-c4cnc([C@@H]5CCCN5C(=O)[C@@H](NC(=O)OC)C(C)C)[nH]4)ccc32)[nH]1)C(C)C (single isomer, unassigned) [Compound 14] | 0.23 | 0.002 | 0.059 | – | – | IC50 (HCV replicon 1B; replicon 1B): 0.0024 nM |
| COC(=O)N[C@H](C(=O)N1CCC[C@H]1c1ncc(-c2cc(F)c3c(c2)OC(c2ccc(C4(C)CC4)s2)n2c-3cc3cc(-c4cnc([C@@H]5CCCN5C(=O)[C@@H](NC(=O)OC)C(C)C)[nH]4)ccc32)[nH]1)C(C)C (single isomer, unassigned) [Compound 835] | – | – | – | – | 0.0035 | IC50 (HCV replicon 1B; HCV replicon 1B): 0.0014 nM; IC50 (HCV replicon 2B; [6]): 1.31 nM; IC50 (HCV replicon 1AY93H; [7]): 0.943 nM |
| CCc1ccc(C2Oc3cc(-c4cnc([C@@H]5CCCN5C(=O)[C@@H](NC(=O)OC)C(C)C)[nH]4)cc(F)c3-c3cc4cc(-c5cnc([C@@H]6CCCN6C(=O)C(NC(=O)OC)C6C[C@@H](C)O[C@@H](C)C6)[nH]5)ccc4n32)s1 (single isomer, unassigned) [Compound 143] | – | 0.111 | – | 0.0059 | – | – |
| CCc1ccc(C2Oc3cc(-c4c[nH]c([C@@H]5CCCN5C(=O)[C@@H](NC(=O)OC)C(C)C)n4)ccc3-c3cc4c(F)c(-c5c[nH]c([C@@H]6CCCN6C(=O)C(NC(=O)OC)C6C[C@@H](C)O[C@@H](C)C6)n5)ccc4n32)s1 (single isomer, unassigned) [Compound 361] | 0.0389 | 0.0036 | 0.138 | 0.0035 | – | – |
| COC(=O)N[C@H](C(=O)N1CCC[C@H]1c1ncc(-c2cc3c4c(c2)OC(c2ccc(Cl)s2)n2c-4c(c4cc(-c5cnc([C@@H]6CCCN6C(=O)[C@@H](NC(=O)OC)C(C)C)[nH]5)ccc42)CC3)[nH]1)C(C)C (stereo partly drawn) [Compound 834] | – | – | – | – | – | IC50 (HCV replicon 1B; [4]): 0.0488 nM; IC50 (HCV replicon 2B; [5]): 16.7 nM; IC50 (HCV replicon 1A; [8]): 0.0842 nM |
| CCc1c2n(c3ccc(-c4cnc(C5CCCN5C(=O)C(NC(=O)OC)C(C)C)[nH]4)cc13)C(c1ccc(C3CC3)s1)Oc1cc(-c3cnc(C4CCCN4C(=O)C(NC(=O)OC)C(C)C)[nH]3)cc(F)c1-2 (single isomer, unassigned) [Compound 839] | – | – | – | – | – | IC50 (HCV replicon 1B; HCV replicon 1B): 0.0023 nM; IC50 (HCV replicon 2B; [6]): 0.971 nM; IC50 (HCV replicon 1AY93H; [7]): 0.865 nM |
| COC(=O)NC(C(=O)N1CCC[C@H]1c1ncc(-c2ccc3c(c2)cc2n3C(c3ccc(C4CC4)s3)Oc3cc(-c4cnc([C@@H]5CCCN5C(=O)[C@@H](NC(=O)OC)C(C)C)[nH]4)cc(F)c3-2)[nH]1)C1CCOC(C)(C)C1 (single isomer, unassigned) [Compound 225] | 13.7 | 0.0477 | – | 0.0102 | – | – |
| COC(=O)N[C@H](C(=O)N1CCC[C@H]1c1ncc(-c2cc(F)c3c(c2)OC(c2ccc(C4CC4)s2)n2c-3c(C)c3cc(-c4cnc([C@@H]5CCCN5C(=O)[C@@H](NC(=O)OC)C(C)C)[nH]4)ccc32)[nH]1)C(C)C (single isomer, unassigned) [Compound 842] | – | – | – | – | 0.0066 | IC50 (HCV replicon 1B; HCV replicon 1B): 0.0014 nM |
| CCc1c2n(c3ccc(-c4cnc([C@@H]5CCCN5C(=O)[C@@H](NC(=O)OC)C(C)C)[nH]4)cc13)C(c1ccc(Cl)s1)Oc1cc(-c3cnc([C@@H]4CCCN4C(=O)[C@@H](NC(=O)OC)C(C)C)[nH]3)cc(F)c1-2 (stereo partly drawn) [Compound 837] | – | – | – | – | – | IC50 (HCV replicon 1B; [4]): 0.0019 nM; IC50 (HCV replicon 1A; [8]): 0.0025 nM; IC50 (HCV replicon 1AY93H; Hepatitis C virus, read-out: 1A Y93H IC50, HCV replicon 1A Y93H): 1.52 nM |
